Bounds are passed on as bounds.

The values below come from ChEMBL document CHEMBL5291721, “A preclinical secondary pharmacology resource illuminates target-adverse drug reaction associations of marketed drugs” (Nat Commun, 2023).

Test [1] concerns the target T1, 5-hydroxytryptamine receptor 1A (Homo sapiens, UniProt P08908).
T1 sequence (P08908 whole entry): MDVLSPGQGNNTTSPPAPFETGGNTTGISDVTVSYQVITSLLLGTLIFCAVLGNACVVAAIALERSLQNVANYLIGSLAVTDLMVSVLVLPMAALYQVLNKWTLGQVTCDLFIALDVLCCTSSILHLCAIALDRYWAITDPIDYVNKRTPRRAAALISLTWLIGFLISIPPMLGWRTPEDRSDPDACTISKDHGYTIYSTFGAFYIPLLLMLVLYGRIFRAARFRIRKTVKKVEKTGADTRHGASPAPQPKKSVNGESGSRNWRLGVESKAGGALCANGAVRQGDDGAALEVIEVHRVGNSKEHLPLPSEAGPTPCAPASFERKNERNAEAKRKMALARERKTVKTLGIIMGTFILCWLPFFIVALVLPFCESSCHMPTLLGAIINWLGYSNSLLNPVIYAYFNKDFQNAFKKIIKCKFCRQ
It is filed as functional, cell-based.

In a further test the target is T2, Progesterone receptor (Homo sapiens, UniProt P06401).
T2 sequence (P06401 whole entry): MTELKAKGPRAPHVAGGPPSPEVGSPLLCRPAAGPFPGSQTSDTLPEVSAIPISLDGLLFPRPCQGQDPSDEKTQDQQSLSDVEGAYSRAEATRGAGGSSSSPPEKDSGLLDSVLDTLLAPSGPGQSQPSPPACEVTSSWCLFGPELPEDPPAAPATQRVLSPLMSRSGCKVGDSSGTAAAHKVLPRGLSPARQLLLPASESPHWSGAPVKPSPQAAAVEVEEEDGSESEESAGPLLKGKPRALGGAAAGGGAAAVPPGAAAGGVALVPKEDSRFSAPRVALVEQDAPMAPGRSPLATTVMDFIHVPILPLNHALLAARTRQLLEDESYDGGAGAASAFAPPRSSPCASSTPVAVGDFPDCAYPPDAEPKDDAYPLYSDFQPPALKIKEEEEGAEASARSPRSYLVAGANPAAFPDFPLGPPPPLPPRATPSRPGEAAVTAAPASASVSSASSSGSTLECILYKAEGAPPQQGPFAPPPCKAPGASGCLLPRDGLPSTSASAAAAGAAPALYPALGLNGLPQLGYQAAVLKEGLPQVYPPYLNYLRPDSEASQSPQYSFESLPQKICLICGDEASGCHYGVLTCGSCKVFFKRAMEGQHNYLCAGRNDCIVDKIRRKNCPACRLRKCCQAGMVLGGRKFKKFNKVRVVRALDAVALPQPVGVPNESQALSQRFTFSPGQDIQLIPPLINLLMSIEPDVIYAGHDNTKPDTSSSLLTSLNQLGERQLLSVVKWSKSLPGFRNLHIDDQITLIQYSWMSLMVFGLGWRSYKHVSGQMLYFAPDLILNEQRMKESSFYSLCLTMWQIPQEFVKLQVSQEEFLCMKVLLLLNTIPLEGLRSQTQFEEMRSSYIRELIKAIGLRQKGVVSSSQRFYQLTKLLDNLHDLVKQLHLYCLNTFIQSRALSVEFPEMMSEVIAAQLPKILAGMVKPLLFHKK
Format: functional.

Test [2] concerns the target T3, Alpha-1A adrenergic receptor (Homo sapiens, UniProt P35348).
T3 sequence (P35348 whole entry): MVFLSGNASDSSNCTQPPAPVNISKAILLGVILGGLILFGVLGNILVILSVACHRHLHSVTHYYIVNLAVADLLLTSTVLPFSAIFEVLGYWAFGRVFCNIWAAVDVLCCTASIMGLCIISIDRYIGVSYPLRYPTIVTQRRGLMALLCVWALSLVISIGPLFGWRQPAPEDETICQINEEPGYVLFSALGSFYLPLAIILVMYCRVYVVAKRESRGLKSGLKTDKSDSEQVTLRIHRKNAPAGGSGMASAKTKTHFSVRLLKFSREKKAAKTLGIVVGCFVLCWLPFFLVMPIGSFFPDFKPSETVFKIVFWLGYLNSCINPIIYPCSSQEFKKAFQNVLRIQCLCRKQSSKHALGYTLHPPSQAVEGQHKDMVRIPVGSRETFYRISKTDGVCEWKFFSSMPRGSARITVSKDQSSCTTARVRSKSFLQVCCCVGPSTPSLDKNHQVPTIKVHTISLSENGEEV
Format: functional, cell-based.

Test [3] deals with T4, Alpha-2A adrenergic receptor (Homo sapiens, UniProt P08913).
T4 sequence (P08913 whole entry): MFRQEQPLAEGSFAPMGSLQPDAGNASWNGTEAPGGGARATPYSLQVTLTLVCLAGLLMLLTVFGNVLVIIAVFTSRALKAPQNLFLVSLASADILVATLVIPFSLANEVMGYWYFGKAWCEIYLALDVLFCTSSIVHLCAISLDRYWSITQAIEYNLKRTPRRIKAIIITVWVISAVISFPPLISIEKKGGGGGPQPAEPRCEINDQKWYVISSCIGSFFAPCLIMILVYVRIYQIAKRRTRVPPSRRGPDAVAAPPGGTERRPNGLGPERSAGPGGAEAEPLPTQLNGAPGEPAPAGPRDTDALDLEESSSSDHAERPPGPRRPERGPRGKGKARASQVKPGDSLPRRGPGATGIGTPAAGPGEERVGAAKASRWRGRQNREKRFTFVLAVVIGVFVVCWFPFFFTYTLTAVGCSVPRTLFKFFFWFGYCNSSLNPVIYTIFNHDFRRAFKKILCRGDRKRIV

Test [4] concerns the target T5, Gastrin/cholecystokinin type B receptor (Homo sapiens, UniProt P32239).
T5 sequence (P32239 whole entry): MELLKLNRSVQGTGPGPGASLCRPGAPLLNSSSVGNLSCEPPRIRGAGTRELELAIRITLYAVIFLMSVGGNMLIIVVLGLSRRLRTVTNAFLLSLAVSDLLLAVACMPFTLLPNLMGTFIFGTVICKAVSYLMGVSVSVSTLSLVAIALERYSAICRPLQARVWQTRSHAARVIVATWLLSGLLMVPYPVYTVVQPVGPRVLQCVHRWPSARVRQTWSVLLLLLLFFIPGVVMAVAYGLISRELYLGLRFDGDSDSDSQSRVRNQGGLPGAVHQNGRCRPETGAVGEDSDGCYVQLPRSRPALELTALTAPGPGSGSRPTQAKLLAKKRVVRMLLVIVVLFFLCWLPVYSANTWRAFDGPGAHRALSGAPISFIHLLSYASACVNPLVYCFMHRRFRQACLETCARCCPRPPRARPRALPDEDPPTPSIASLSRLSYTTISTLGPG
Further: assay procedure not described here.

As usually defined, the AC50 is the concentration giving half of the maximal activity seen. As to `CCOCC(O)COc1ccc(NC(=O)CC[S+](C)C)cc1` (configuration not stated), the AC50 (in test [1]; at Progesterone receptor) was greater than 30 µM throughout.
As for `CCOC(=O)[C@H](CCc1ccccc1)N[C@@H](C)C(=O)N1Cc2ccccc2C[C@H]1C(=O)O`, the AC50 in test [2] was greater than 30 µM; in test [3], greater than 30 µM; in test [4], greater than 30 µM; in test [1], greater than 10 µM.
Take `CCC[C@@]1(CCc2ccccc2)CC(O)=C([C@H](CC)c2cccc(NS(=O)(=O)c3ccc(C(F)(F)F)cn3)c2)C(=O)O1`: the AC50 in test [1] was greater than 30 µM; on Progesterone receptor, 13 µM.
Turning to `CN(C)CCc1c[nH]c2ccc(CS(=O)(=O)N3CCCC3)cc12` [ALMOTRIPTAN], the AC50 (in test [4]; on Progesterone receptor) was greater than 30 µM throughout.
As to `CC[N+](CC)(CCNC(=O)C(=O)NCC[N+](CC)(CC)Cc1ccccc1Cl)Cc1ccccc1Cl` [AMBENONIUM], the AC50 (in test [4]; in test [1]; on Progesterone receptor) was greater than 30 µM in each case.
With `NCCCCCC(=O)O` [AMINOCAPROIC ACID], the AC50 (in test [1]; at Progesterone receptor) was greater than 10 µM throughout.
As to `CN1CC2c3ccccc3Oc3ccc(Cl)cc3C2C1` (configuration not stated) [ASENAPINE], the AC50 was 0.0097 µM in test [1] and greater than 30 µM at Progesterone receptor.
`CC(=O)Oc1ccccc1C(=O)O` [ASPIRIN]: the AC50 is greater than 30 µM in test [2], greater than 30 µM in test [3], greater than 30 µM in test [4] and greater than 10 µM in test [1].
As for `CC(C)NCC(O)COc1ccc(CC(N)=O)cc1` (configuration not stated) [ATENOLOL], the AC50 (in test [4]; at Progesterone receptor) was greater than 30 µM in each case.
Regarding `Cn1cnc2c(F)c(Nc3ccc(Br)cc3F)c(C(=O)NOCCO)cc21` [BINIMETINIB], the concentration at half-maximal activity (AC50) (in test [1]; at Progesterone receptor) was greater than 30 µM each time.
In the case of `CC(C)C[C@H](NC(=O)[C@H](Cc1ccccc1)NC(=O)c1cnccn1)B(O)O` [BORTEZOMIB], the AC50 (in test [4]; in test [1]; at Progesterone receptor) was greater than 30 µM throughout.
Consider `CN(C)CCOC(c1ccc(Cl)cc1)c1ccccn1` (configuration not stated) [CARBINOXAMINE], for which the AC50 (in test [4]; in test [1]; on Progesterone receptor) was greater than 30 µM each time.
As for `CCN(CC)CCn1c(=O)c(Cc2ccc(OC)cc2)nc2ccccc21` [CAROVERINE], the AC50 (in test [4]; in test [1]; at Progesterone receptor) was greater than 30 µM each time.
As for `O=C(O)[C@H]1/C(=C/CO)O[C@@H]2CC(=O)N21` [CLAVULANIC ACID], the AC50 (in test [1]; at Progesterone receptor) was greater than 30 µM in each case.
On to `CC(C)/N=c1\cc2n(-c3ccc(Cl)cc3)c3ccccc3nc-2cc1Nc1ccc(Cl)cc1` [CLOFAZIMINE], for which the AC50 (in test [4]; in test [1]; on Progesterone receptor) was greater than 30 µM in each case.
With `C[C@H](Nc1ncnc2[nH]cnc12)c1cc2cccc(Cl)c2c(=O)n1-c1ccccc1` [DUVELISIB], the AC50 (in test [3]; in test [1]; at Progesterone receptor) was greater than 30 µM in each case.
For `COC(=O)CCc1ccc(OCC(O)CNC(C)C)cc1` (configuration not stated) [ESMOLOL], the AC50 (in test [4]; at Progesterone receptor) was greater than 30 µM each time.
Take `CCN(CCO)CCCC(C)Nc1ccnc2cc(Cl)ccc12` (configuration not stated) [HYDROXYCHLOROQUINE]: the AC50 (in test [1]; on Progesterone receptor) was greater than 10 µM each time.
Regarding `C[C@@H](O)[C@H]1C(=O)N2C(C(=O)O)=C(SCCN=CN)C[C@H]12` [IMIPENEM ANHYDROUS], the AC50 (in test [1]; at Progesterone receptor) was greater than 300 µM in each case.
With `O=C(c1ccccc1)c1ccc2n1CCC2C(=O)O` (configuration not stated) [KETOROLAC], the AC50 (in test [1]; on Progesterone receptor) was greater than 10 µM each time.
As to `N[C@@H](Cc1cc(I)c(Oc2cc(I)c(O)c(I)c2)c(I)c1)C(=O)O` [LEVOTHYROXINE], the AC50 in test [4] is greater than 30 µM; in test [1] it was greater than 30 µM; at Progesterone receptor, 8.7 µM.
In the case of `CC(=O)NC[C@H]1CN(c2ccc(N3CCOCC3)c(F)c2)C(=O)O1` [LINEZOLID], the AC50 (in test [4]; in test [1]; on Progesterone receptor) was greater than 30 µM in each case.
`O=C1[C@@H]2[C@H]3CC[C@H](C3)[C@@H]2C(=O)N1C[C@@H]1CCCC[C@H]1CN1CCN(c2nsc3ccccc23)CC1` [LURASIDONE] gave an AC50 at Progesterone receptor greater than 30 µM.
For `CNC1(C)C2CCC(C2)C1(C)C` (configuration not stated) [MECAMYLAMINE], the AC50 (in test [1]; at Progesterone receptor) was greater than 10 µM each time.
`CO[C@@H]1[C@@H](OC(N)=O)[C@@H](O)[C@H](Oc2ccc3c(O)c(NC(=O)c4ccc(O)c(CC=C(C)C)c4)c(=O)oc3c2C)OC1(C)C` [NOVOBIOCIN]: the AC50 (in test [1]; at Progesterone receptor) was greater than 30 µM in each case.
As for `CCC1(c2ccccc2)C(=O)NCNC1=O` [PRIMIDONE], the AC50 (in test [1]; on Progesterone receptor) was greater than 10 µM in each case.
Take `CC(=O)SCC(Cc1ccccc1)C(=O)NCC(=O)OCc1ccccc1` (configuration not stated) [RACECADOTRIL]: the AC50 (in test [4]; in test [1]; at Progesterone receptor) was greater than 30 µM throughout.
Turning to `C[C@H](Cn1cnc2c(N)ncnc21)OCP(=O)(O)O` [TENOFOVIR ANHYDROUS], the AC50 (in test [4]; in test [1]; at Progesterone receptor) was greater than 30 µM throughout.
Consider `COc1cc2c(cc1OC)C1CC(=O)C(CC(C)C)CN1CC2` (configuration not stated) [TETRABENAZINE], for which the AC50 (in test [1]; at Progesterone receptor) was greater than 30 µM throughout.
Regarding `CC(C)(CO)c1cc2cc(NC(=O)C3(c4ccc5c(c4)OC(F)(F)O5)CC3)c(F)cc2n1C[C@@H](O)CO` [TEZACAFTOR], the AC50 in test [1] is greater than 10 µM; at Progesterone receptor, greater than 30 µM.
In the case of `c1cnc2cc3c(cc2n1)[C@@H]1CNC[C@H]3C1` [VARENICLINE], the AC50 (in test [1]; on Progesterone receptor) was greater than 30 µM each time.
Consider `Nc1c2c(nc3ccccc13)CCCC2O` (configuration not stated) [VELNACRINE], for which the AC50 (in test [1]; at Progesterone receptor) was greater than 30 µM throughout.
